Results reported in patent US11390617B2, “Methods of treating non-Hodgkin lymphoma using 2-(2,6-dioxopiperidin-3-yl)-4-((2-fluoro-4-((3-morpholinoazetidin-1-yl)methyl)benzyl)amino)isoindoline-1,3-dione” (Celgene Corporation, priority 2019, dated 2022).

Key:
Experiment in all cases: NHL cell line viability/apoptosis 384-well flow cytometry assay
Assay type in all cases: cell-based
NU-DUL-1 = NU-DUL-1 (DLBCL), 120 hours
Description: (§1) The following exemplary anti-proliferative assay uses exemplary non-Hodgkin lymphoma (NIL) cell lines (including diffuse large B-cell lymphoma (DLBCL), follicular lymphoma (FL), and mantle cell lymphoma (MCL)) (Table 5). The in vitro growth inhibitory activity of Compound 1 described herein was evaluated using a 384-well flow cytometry assay.
(§2) The cell lines in Table 5 were plated in 384-well flat bottom plates and assessed with increasing concentrations of compound ranging from 0.00015 to 10 μM or dimethyl sulfoxide (DMSO) control. The final concentration of DMSO was 0.1% (v/v). Following the addition of Compound 1 or DMSO and incubation for 120 hours, cell number and cell death were analyzed by flow cytometry (Attune®, Thermo Fisher) using Annexin V and the live-cell impermeant DNA dye, DRAQ7. Phosphatidylserine translocates from the inner layer to the outer layer of the cell membrane early in apoptosis and Annexin V binds to the exposed phosphatidylserine found on the surface of an apoptotic cell. The vital dye DRAQ7 is excluded by intact live cells and only stains cells that have died as a result of apoptosis or necrosis.
(§3) Flow cytometry data analysis was then performed using the Flow Jo_v10 software to determine the number of viable cells (Annexin V and DRAQ7 double negative staining cells) and percentage of apoptotic cells (Annexin V positive cells) for each condition. The live cell count for every concentration was normalized to the DMSO control (considered as 100%) to calculate the percentage of viable cells remaining after treatment and graphed using GraphPad Prism 7.03. The IC50 (50% inhibitory concentration) and Emax (maximum efficacy achieved) values were then calculated by performing nonlinear regression curve fitting using log(inhibitor) vs. normalized response—variable slope analysis on GraphPad Prism 7.03. Area under the curve (AUC) was calculated by performing area under curve analysis on GraphPad Prism 7.03. Similarly, for apoptosis analysis, the percentage of apoptosis combining both “early” (Annexin V positive and DRAQ7 negative) and “late” apoptosis (Annexin V and DRAQ7 positive) cell gates relative to DMSO was graphed using GraphPad Prism 7.03. The AUC, EC50 (concentration of Compound 1 that produces half-maximal apoptosis response) and Ymax (maximal percentage of apoptosis achieved) values from apoptosis curves were calculated by performing area under curve analysis and nonlinear regression curve fitting using log(agonist) vs. normalized response—Variable slope analysis on GraphPad Prism 7.03.
(§4) In Table 6, dose-response proliferation curves for the panel of NHL cell lines and non-linear curve-fit regression were used to determine IC50, AUC, and Emax for % viable cells (Emax for viability varies between 100 at low doses and 0 at high doses, which corresponds to inhibition of all viable cells), and dose-response apoptosis curves were used to determine the EC50, AUC, and Ymax for % apoptosis (Ymax for apoptosis varies from 0 at low doses and 100 at higher doses which corresponds to death of all cells). Tumor cells were exposed to serial dilutions (0.00015 to 10 μM) of Compound 1 or dimethyl sulfoxide (DMSO) control for 5 days. Viability and apoptosis for all cell lines was determined by Annexin V/[…] flow cytometry.

HT = HT (DLBCL), 120 hours
Description: as §1, §2, §3, §4

DOHH2 = DOHH2 (FL), 120 hours
Description: as §1, §2, §3, §4

WILL-2 = WILL-2 (DLBCL), 120 hours
Description: as §1, §2, §3, §4

OCI-LY1 = OCI-LY1 (DLBCL), 120 hours
Description: as §1, §2, §3, §4

Rec-1 = Rec-1 (MCL), 120 hours
Description: as §1, §2, §3, §4

KARPAS-1106P = KARPAS-1106P (DLBCL), 120 hours
Description: as §1, §2, §3, §4

SU-DHL-2 = SU-DHL-2 (DLBCL), 120 hours
Description: as §1, §2, §3, §4

RL = RL (FL), 120 hours
Description: as §1, §2, §3, §4

OCI-LY18 = OCI-LY18 (DLBCL), 120 hours
Description: as §1, §2, §3, §4

Toledo = Toledo (DLBCL), 120 hours
Description: as §1, §2, §3, §4

RIVA = RIVA (DLBCL), 120 hours
Description: as §1, §2, §3, §4

[1] = Homo sapiens, read-out: IC50 (% Viable Cells)
[2] = read-out: IC50 (% Viable Cells)

O=C1CC[C@H](N2C(=O)c3cccc(NCc4ccc(CN5CC(N6CCOCC6)C5)cc4F)c3C2=O)C(=O)N1 [Compound 1, (S)-2-(2,6-dioxopiperidin-3-yl)-4-((2-fluoro-4-((3-morpholinoazetidin-1-yl)methyl)benzyl)amino)isoindoline-1,3-dione]
EC50 (NU-DUL-1; Homo sapiens): 63 nM
IC50 (NU-DUL-1; [1]): 35.3 nM
AUC (% Viable Cells) (NU-DUL-1): 22.12
AUC (Apoptosis) (NU-DUL-1): 962.8
Emax (% Viable Cells) (NU-DUL-1): 0.0228%
Ymax (Apoptosis) (NU-DUL-1): 99.84%
AUC (% Viable Cells) (HT): 396.7
AUC (Apoptosis) (HT): 225.3
Emax (% Viable Cells) (HT): 30.39%
Ymax (Apoptosis) (HT): 25.16%
EC50 (HT; Homo sapiens): 66.2 nM
IC50 (HT; [1]): 319 nM
AUC (% Viable Cells) (DOHH2): 6.902
AUC (Apoptosis) (DOHH2): 923.9
Emax (% Viable Cells) (DOHH2): 0.2066%
Ymax (Apoptosis) (DOHH2): 95.1%
EC50 (DOHH2; Homo sapiens, DOHH-2): 17.5 nM
IC50 (DOHH2; Homo sapiens, DOHH-2, read-out: IC50 (% Viable Cells)): 2.8 nM
AUC (% Viable Cells) (WILL-2): 17.1
AUC (Apoptosis) (WILL-2): 916.9
EC50 (WILL-2): 89.7 nM
Emax (% Viable Cells) (WILL-2): 0.03115%
Ymax (Apoptosis) (WILL-2): 99.43%
IC50 (WILL-2; [2]): 2.36 nM
EC50 (OCI-LY1; Homo sapiens): 33.4 nM
IC50 (OCI-LY1; [1]): 6 nM
AUC (% Viable Cells) (OCI-LY1): 22.77
AUC (Apoptosis) (OCI-LY1): 852.3
Emax (% Viable Cells) (OCI-LY1): 1.037%
Ymax (Apoptosis) (OCI-LY1): 90.09%
EC50 (Rec-1; Homo sapiens, Rec1): 9.26 nM
IC50 (Rec-1; Homo sapiens, Rec1, read-out: IC50 (% Viable Cells)): 32 nM
AUC (% Viable Cells) (Rec-1): 281.8
AUC (Apoptosis) (Rec-1): 508.5
Emax (% Viable Cells) (Rec-1): 21.04%
Ymax (Apoptosis) (Rec-1): 57.27%
EC50 (KARPAS-1106P; Homo sapiens): 91.8 nM
IC50 (KARPAS-1106P; [1]): 17.5 nM
AUC (% Viable Cells) (KARPAS-1106P): 22.22
AUC (Apoptosis) (KARPAS-1106P): 885.2
Emax (% Viable Cells) (KARPAS-1106P): 0.1698%
Ymax (Apoptosis) (KARPAS-1106P): 97.08%
EC50 (SU-DHL-2; Homo sapiens): 6.24 nM
IC50 (SU-DHL-2; [1]): 1.26 nM
AUC (% Viable Cells) (SU-DHL-2): 5.586
AUC (Apoptosis) (SU-DHL-2): 928.4
Emax (% Viable Cells) (SU-DHL-2): 0.2145%
Ymax (Apoptosis) (SU-DHL-2): 95.98%
EC50 (RL; Homo sapiens): 157 nM
IC50 (RL; [1]): 8.76 nM
AUC (% Viable Cells) (RL): 234.8
AUC (Apoptosis) (RL): 115.9
Emax (% Viable Cells) (RL): 21.55%
Ymax (Apoptosis) (RL): 13.93%
EC50 (OCI-LY18; Homo sapiens): 2.98 nM
IC50 (OCI-LY18; [1]): 0.944 nM
AUC (% Viable Cells) (OCI-LY18): 1.965
AUC (Apoptosis) (OCI-LY18): 965.2
Emax (% Viable Cells) (OCI-LY18): 0.05973%
Ymax (Apoptosis) (OCI-LY18): 97.44%
EC50 (Toledo; Homo sapiens): 223 nM
IC50 (Toledo; [1]): 2 nM
AUC (% Viable Cells) (Toledo): 112.3
AUC (Apoptosis) (Toledo): 231.4
Emax (% Viable Cells) (Toledo): 8.56%
Ymax (Apoptosis) (Toledo): 27.5%
AUC (% Viable Cells) (RIVA): 452.6
AUC (Apoptosis) (RIVA): 242.8
EC50 (RIVA): 17.7 nM
Emax (% Viable Cells) (RIVA): 36.65%
Ymax (Apoptosis) (RIVA): 27.92%
IC50 (RIVA; [2]): 114 nM
